Experimental data as given in patent publication US10738051B2, “β-lactamase inhibitors” (priority 2016, dated 2020).

Legend:
Experiment in all cases: In vitro enzymatic assay (Nitrocefin)
Format in all cases: biochemical
[1] = target: AmpC-PA (Class C) β-lactamase (Pseudomonas aeruginosa, UniProt P24735)
Procedure: (§1) 2) Prepare buffer solution A (1×PBS, pH 7.4, 0.1 mg/mL BSA) for enzymatic assay;
(§2) 3) The compound mother liquor was 4-fold serial diluted for 11 times with DMSO in a 96-well tip-bottom plate, which was used as a working solution. A 96-well flat bottom plate was used as a test plate, the corresponding reaction buffer was previously added to each well, followed by addition of a corresponding volume of the working solution (100 μM-0.095 nM and 0 nM). Wherein, EDTA-Na2 was used as a control for the NDM-1 test at a concentration of 20 mM;
(§3) 4) adding the corresponding β-lactamase, and the test plate was incubated at 37° C. for 5 minutes;
(§4) 5) Adding 5 μL Nitrocefin (the final reaction volume was 100 μL), the absorbance OD490 of the reaction solution in the plate was measured by a microplate reader and the result was recorded, the absorbance was measured every minute over 30 minutes;
(§5) 6) The microplate reader could give a curve of OD490 over time. The slope of the curve (Abs2−Abs1)/(T2−T1) was calculated by taking two data points Abs1 and Abs2 within the linear range of the curve.
(§6) 7) The relative inhibition rate was calculated as follows: Slope (EC) was calculated under the condition of absence of an inhibitor, and Slop(S) was calculated under the condition of an inhibitor at a certain concentration.
(§7) The relative inhibition rate and the corresponding concentration of the inhibitor were used to calculate the IC50 value of the inhibitor on β-lactamase. In this experiment, the IC50 was calculated using the formula of GraphPad Prism 5.0, log(inhibitor) vs. normalized response-Variable slope.

[2] = target: OXA-9 (Class D) β-lactamase (Klebsiella pneumoniae, UniProt P0A3M3)
Chain of OXA-9 (Class D) β-lactamase (P0A3M3 25-274): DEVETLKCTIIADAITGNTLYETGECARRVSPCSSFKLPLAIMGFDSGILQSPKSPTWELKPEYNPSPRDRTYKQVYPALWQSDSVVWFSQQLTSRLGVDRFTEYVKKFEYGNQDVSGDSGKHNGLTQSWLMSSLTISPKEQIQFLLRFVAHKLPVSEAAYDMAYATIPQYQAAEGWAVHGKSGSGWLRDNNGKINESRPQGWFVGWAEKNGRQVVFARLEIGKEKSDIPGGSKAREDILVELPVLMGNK
Procedure: as §1, §2, §3, §4, §5, §6, §7

[3] = target: AmpC-EC (Class C) β-lactamase (UniProt P05364); settings: Nitrocefin 0.1 mM, 1 × PBS pH 7.4, 0.1 mg/mL BSA, read-out: IC50, inhibitory activity on β-lactamase
Procedure: as §1, §2, §3, §4, §5, §6, §7

[4] = target: KPC (Class A) β-lactamase (Klebsiella pneumoniae, UniProt Q9F663)
Chain of KPC (Class A) β-lactamase (Q9F663 25-293 limits assumed): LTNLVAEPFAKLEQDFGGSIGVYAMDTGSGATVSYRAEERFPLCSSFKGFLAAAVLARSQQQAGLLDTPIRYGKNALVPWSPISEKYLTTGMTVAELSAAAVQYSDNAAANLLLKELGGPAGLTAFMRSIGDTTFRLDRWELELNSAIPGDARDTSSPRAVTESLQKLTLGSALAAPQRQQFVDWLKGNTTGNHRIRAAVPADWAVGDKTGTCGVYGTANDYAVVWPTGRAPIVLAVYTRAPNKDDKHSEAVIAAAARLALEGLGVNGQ
Procedure: as §1, §2, §3, §4, §5, §6, §7

[5] = target: TEM-1 (Class A) β-lactamase (Escherichia coli, UniProt P62593); settings: Nitrocefin 0.1 mM, 1 × PBS pH 7.4, 0.1 mg/mL BSA, read-out: IC50, inhibitory activity on β-lactamase
Chain of TEM-1 (Class A) β-lactamase (P62593 24-286 limits assumed): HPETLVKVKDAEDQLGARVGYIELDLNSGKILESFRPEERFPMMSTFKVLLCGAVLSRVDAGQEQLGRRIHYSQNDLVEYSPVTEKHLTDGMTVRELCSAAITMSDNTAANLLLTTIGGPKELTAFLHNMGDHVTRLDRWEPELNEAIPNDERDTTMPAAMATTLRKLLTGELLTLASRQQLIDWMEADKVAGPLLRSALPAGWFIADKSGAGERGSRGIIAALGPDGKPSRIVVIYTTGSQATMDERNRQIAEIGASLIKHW
Procedure: as §1, §2, §3, §4, §5, §6, §7

[6] = target: CTX-M-44 (Class C) β-lactamase (Escherichia coli, UniProt Q47066)
Chain of CTX-M-44 (Class C) β-lactamase (Q47066 30-291): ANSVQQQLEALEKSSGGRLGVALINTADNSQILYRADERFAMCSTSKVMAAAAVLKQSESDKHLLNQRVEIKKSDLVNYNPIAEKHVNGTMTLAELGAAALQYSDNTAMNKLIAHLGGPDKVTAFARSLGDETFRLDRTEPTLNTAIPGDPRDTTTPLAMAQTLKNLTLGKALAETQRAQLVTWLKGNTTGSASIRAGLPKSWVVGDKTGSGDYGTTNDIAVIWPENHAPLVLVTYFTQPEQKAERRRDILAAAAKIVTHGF
Procedure: as §1, §2, §3, §4, §5, §6, §7

[7] = target: OXA-2 (Class D) β-lactamase (Escherichia coli, UniProt P0A1V9)
Chain of OXA-2 (Class D) β-lactamase (P0A1V9 22-275): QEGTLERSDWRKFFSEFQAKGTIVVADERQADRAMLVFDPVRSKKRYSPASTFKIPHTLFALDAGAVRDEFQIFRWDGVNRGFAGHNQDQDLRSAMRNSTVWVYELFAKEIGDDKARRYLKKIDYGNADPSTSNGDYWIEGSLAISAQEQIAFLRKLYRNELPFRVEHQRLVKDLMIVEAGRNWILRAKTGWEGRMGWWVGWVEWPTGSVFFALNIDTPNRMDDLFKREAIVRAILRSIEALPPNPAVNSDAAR
Procedure: as §1, §2, §3, §4, §5, §6, §7

Chain of AmpC-PA (Class C) β-lactamase (P24735 27-397): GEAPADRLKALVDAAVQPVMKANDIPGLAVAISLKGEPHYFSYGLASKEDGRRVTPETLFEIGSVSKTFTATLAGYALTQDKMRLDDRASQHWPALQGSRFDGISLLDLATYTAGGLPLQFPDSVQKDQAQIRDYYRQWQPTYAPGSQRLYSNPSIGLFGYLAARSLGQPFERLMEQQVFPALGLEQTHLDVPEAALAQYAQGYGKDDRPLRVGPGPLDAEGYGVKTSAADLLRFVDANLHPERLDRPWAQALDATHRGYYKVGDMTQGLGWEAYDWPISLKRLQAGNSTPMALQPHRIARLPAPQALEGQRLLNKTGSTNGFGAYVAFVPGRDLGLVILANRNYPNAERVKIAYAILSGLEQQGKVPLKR

Compound `N=C(N)NOCCONC(=O)[C@@H]1CC[C@@H]2CN1C(=O)N2OS(=O)(=O)O` [Compound 1] has an IC50 [1] of 98.6 nM, an IC50 [2] of 5000 nM and an IC50 [3] of 20.2 nM. The IC50 [4] was 43.1 nM, the IC50 [5] was 38.9 nM and the IC50 [6] was 31.9 nM. For the same compound, the IC50 [7] was 1550 nM.
